Data on five compounds can be found in article PMC5518309 (ChemMedChem, 2014).

Molecules are shown by their SMILES. Numbered stars: 1 amine (or outer) side, 2 acyl side, 3 side chain; on linkers, the order of the positions; unused ones are H or OH. Side chains are listed from the residue outwards. Peptide text beside a SMILES is read from it. * marks the point of attachment. X1 = CN(C)c1ccc2c(c1)Oc1cc(N(C)C)ccc1C21OC(=O)c2ccc(C(=O)*)cc21; γGlu = O=C(O)[C@H](CCC(=O)[*:2])N[*:1]; Palmitoyl = CCCCCCCCCCCCCCCC(=O)*; Octanoyl = CCCCCCCC(=O)*; Propionyl = CCC(=O)*

Data set [1] in a line: Metabolic stability in porcine liver homogenates. The data set is classed as in vitro ADME. The note with it: pig, porcine liver homogenate (supernatant).
Data set [2] can be described thus: Stability test in human blood plasma. The data set is classed as in vitro ADME. The following applies: for half-life at 10 μM: human.
Data set [3] addresses T1, hY1R (Homo sapiens, UniProt P25929).
T1 sequence (P25929 1-384): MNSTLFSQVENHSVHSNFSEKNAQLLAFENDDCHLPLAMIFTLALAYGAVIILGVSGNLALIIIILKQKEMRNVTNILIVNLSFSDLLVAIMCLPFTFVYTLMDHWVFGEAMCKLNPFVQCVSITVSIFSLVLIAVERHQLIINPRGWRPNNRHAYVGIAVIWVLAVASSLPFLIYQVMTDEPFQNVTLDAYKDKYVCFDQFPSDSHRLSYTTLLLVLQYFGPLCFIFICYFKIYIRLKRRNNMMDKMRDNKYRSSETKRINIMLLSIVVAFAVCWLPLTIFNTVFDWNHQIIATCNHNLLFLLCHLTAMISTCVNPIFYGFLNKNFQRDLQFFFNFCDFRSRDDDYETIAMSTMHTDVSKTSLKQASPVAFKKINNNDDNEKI
In words: Inositol phosphate accumulation assay, hY1R. The data set is classed as cell-based.

For data set [4], the target named is T2, hY5R (Homo sapiens, UniProt Q15761).
T2 sequence (Q15761 1-445): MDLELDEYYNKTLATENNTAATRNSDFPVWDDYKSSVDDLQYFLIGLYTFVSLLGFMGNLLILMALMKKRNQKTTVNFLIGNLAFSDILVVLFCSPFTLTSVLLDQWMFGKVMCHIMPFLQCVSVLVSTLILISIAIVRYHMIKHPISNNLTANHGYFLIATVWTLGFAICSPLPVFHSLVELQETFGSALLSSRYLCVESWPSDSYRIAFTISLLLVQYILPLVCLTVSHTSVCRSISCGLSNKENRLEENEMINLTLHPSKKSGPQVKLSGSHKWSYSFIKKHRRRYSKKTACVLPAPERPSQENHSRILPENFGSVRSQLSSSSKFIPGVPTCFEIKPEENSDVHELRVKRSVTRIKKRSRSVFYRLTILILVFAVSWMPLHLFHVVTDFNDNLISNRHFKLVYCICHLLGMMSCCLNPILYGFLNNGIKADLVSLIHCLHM
In words: Inositol phosphate accumulation assay, hY5R. It counts as cell-based.

Data set [5] concerns the target T3, hY2R (Homo sapiens, UniProt P49146).
T3 sequence (P49146 1-381): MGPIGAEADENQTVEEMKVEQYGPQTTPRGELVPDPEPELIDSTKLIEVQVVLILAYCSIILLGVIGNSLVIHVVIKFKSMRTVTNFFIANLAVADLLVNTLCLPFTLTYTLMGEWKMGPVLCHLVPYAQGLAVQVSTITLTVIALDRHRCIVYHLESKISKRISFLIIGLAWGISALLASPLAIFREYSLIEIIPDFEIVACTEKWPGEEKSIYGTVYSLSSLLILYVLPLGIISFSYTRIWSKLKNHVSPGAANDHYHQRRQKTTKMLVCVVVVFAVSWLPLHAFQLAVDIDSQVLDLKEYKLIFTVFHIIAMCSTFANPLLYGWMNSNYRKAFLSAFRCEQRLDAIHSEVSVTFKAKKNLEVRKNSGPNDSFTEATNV
Kind of data set: Inositol phosphate accumulation assay, hY2R. The data set is classed as cell-based.

In data set [6] the target is hY4R (Homo sapiens, UniProt P50391). Kind of data set: Inositol phosphate accumulation assay, hY4R. The data set is classed as cell-based.
Sequence of hY4R (P50391 whole entry): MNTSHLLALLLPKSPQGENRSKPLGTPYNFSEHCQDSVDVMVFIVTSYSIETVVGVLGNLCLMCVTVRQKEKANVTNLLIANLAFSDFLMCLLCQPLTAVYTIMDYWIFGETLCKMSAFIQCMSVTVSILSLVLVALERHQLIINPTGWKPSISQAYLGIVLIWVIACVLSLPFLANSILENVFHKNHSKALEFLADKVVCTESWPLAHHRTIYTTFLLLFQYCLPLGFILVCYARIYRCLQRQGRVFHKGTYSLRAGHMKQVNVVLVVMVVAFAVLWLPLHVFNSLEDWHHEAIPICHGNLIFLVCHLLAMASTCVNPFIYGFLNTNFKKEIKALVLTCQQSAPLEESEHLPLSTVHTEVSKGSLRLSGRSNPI

For `CCCCCCCCCCCCCCCC(=O)N[C@@H](CCC(=O)NCCCC[C@H](NC(=O)[C@H](CC(N)=O)NC(=O)[C@@H](NC(=O)[C@H](Cc1ccc(O)cc1)NC(=O)[C@H](CCCNC(=N)N)NC(=O)[C@H](CCCNC(=N)N)NC(=O)[C@H](CC(C)C)NC(=O)[C@H](CC(=O)O)NC(=O)[C@H](C)NC(=O)[C@H](C)NC(=O)[C@H](Cc1ccc(O)cc1)NC(=O)[C@H](CCC(N)=O)NC(=O)[C@H](C)NC(=O)[C@H](CCSC)NC(=O)[C@H](CCC(N)=O)NC(=O)[C@H](CCC(=O)O)NC(=O)[C@@H]1CCCN1C(=O)[C@@H](NC(=O)[C@H](C)NC(=O)[C@H](CC(N)=O)NC(=O)[C@H](CC(=O)O)NC(=O)CNC(=O)[C@@H]1CCCN1C(=O)[C@H](Cc1ccc(O)cc1)NC(=O)[C@@H](NC(=O)[C@@H]1CCCN1C(=O)[C@H](CCC(=O)O)NC(=O)[C@H](CC(C)C)NC(=O)[C@@H]1CCCN1C(=O)c1ccc2c(c1)C1(OC2=O)c2ccc(N(C)C)cc2Oc2cc(N(C)C)ccc21)C(C)C)[C@@H](C)O)[C@@H](C)CC)C(=O)N[C@@H](CC(C)C)C(=O)N[C@H](C(=O)N[C@@H](CCCNC(=N)N)C(=O)N1CCC[C@H]1C(=O)N[C@@H](CCCNC(=N)N)C(=O)N[C@@H](Cc1ccc(O)cc1)C(N)=O)[C@@H](C)O)C(=O)O` [18b, TAMRA-[K^30(E-Pam)]hPP2–36] (X1-PLEPVYPGDNATPEQMAQYAADLRRYINK([γGlu-Palmitoyl])LTRPRY-NH2), the results for the half-life at 10 μM in data set [1] and in data set [2] were 11.8 ± 0.8 h and 1090 ± 282 h, respectively. Also, the “fold increased half-life in human blood plasma compared to control peptide 14b” value in data set [2] (37°C) is “more than 10 fold”.
As to `CCCCCCCC(=O)N[C@@H](CCC(=O)NCCCC[C@H](NC(=O)[C@H](CC(N)=O)NC(=O)[C@@H](NC(=O)[C@H](Cc1ccc(O)cc1)NC(=O)[C@H](CCCNC(=N)N)NC(=O)[C@H](CCCNC(=N)N)NC(=O)[C@H](CC(C)C)NC(=O)[C@H](CC(=O)O)NC(=O)[C@H](C)NC(=O)[C@H](C)NC(=O)[C@H](Cc1ccc(O)cc1)NC(=O)[C@H](CCC(N)=O)NC(=O)[C@H](C)NC(=O)[C@H](CCSC)NC(=O)[C@H](CCC(N)=O)NC(=O)[C@H](CCC(=O)O)NC(=O)[C@@H]1CCCN1C(=O)[C@@H](NC(=O)[C@H](C)NC(=O)[C@H](CC(N)=O)NC(=O)[C@H](CC(=O)O)NC(=O)CNC(=O)[C@@H]1CCCN1C(=O)[C@H](Cc1ccc(O)cc1)NC(=O)[C@@H](NC(=O)[C@@H]1CCCN1C(=O)[C@H](CCC(=O)O)NC(=O)[C@H](CC(C)C)NC(=O)[C@@H]1CCCN1C(=O)c1ccc2c(c1)C1(OC2=O)c2ccc(N(C)C)cc2Oc2cc(N(C)C)ccc21)C(C)C)[C@@H](C)O)[C@@H](C)CC)C(=O)N[C@@H](CC(C)C)C(=O)N[C@H](C(=O)N[C@@H](CCCNC(=N)N)C(=O)N1CCC[C@H]1C(=O)N[C@@H](CCCNC(=N)N)C(=O)N[C@@H](Cc1ccc(O)cc1)C(N)=O)[C@@H](C)O)C(=O)O` [16b, TAMRA-[K^30(E-Capr)]hPP2–36] (X1-PLEPVYPGDNATPEQMAQYAADLRRYINK([γGlu-Octanoyl])LTRPRY-NH2), the half-life (usually the time needed for the level to fall by half in the phase considered) at 10 μM in data set [1] was 14.6 ± 2.8 h; in data set [2] it was 281 ± 26.7 h.
Taken in the same sequence, the figures for `CC[C@H](C)[C@H](NC(=O)[C@H](Cc1ccc(O)cc1)NC(=O)[C@H](CCCNC(=N)N)NC(=O)[C@H](CCCNC(=N)N)NC(=O)[C@H](CC(C)C)NC(=O)[C@H](CC(=O)O)NC(=O)[C@H](C)NC(=O)[C@H](C)NC(=O)[C@H](Cc1ccc(O)cc1)NC(=O)[C@H](CCC(N)=O)NC(=O)[C@H](C)NC(=O)[C@H](CCSC)NC(=O)[C@H](CCC(N)=O)NC(=O)[C@H](CCC(=O)O)NC(=O)[C@@H]1CCCN1C(=O)[C@@H](NC(=O)[C@H](C)NC(=O)[C@H](CC(N)=O)NC(=O)[C@H](CC(=O)O)NC(=O)CNC(=O)[C@@H]1CCCN1C(=O)[C@H](Cc1ccc(O)cc1)NC(=O)[C@@H](NC(=O)[C@@H]1CCCN1C(=O)[C@H](CCC(=O)O)NC(=O)[C@H](CC(C)C)NC(=O)[C@@H]1CCCN1C(=O)c1ccc2c(c1)C1(OC2=O)c2ccc(N(C)C)cc2Oc2cc(N(C)C)ccc21)C(C)C)[C@@H](C)O)C(=O)N[C@@H](CC(N)=O)C(=O)N[C@@H](CCCCN)C(=O)N[C@@H](CC(C)C)C(=O)N[C@H](C(=O)N[C@@H](CCCNC(=N)N)C(=O)N1CCC[C@H]1C(=O)N[C@@H](CCCNC(=N)N)C(=O)N[C@@H](Cc1ccc(O)cc1)C(N)=O)[C@@H](C)O` [14b, TAMRA-[K^30]hPP2–36] (X1-PLEPVYPGDNATPEQMAQYAADLRRYINKLTRPRY-NH2) were 11 ± 0.4 h and about 100 h.
For `CCC(=O)N[C@@H](CCC(=O)NCCCC[C@H](NC(=O)[C@H](CC(N)=O)NC(=O)[C@@H](NC(=O)[C@H](Cc1ccc(O)cc1)NC(=O)[C@H](CCCNC(=N)N)NC(=O)[C@H](CCCNC(=N)N)NC(=O)[C@H](CC(C)C)NC(=O)[C@H](CC(=O)O)NC(=O)[C@H](C)NC(=O)[C@H](C)NC(=O)[C@H](Cc1ccc(O)cc1)NC(=O)[C@H](CCC(N)=O)NC(=O)[C@H](C)NC(=O)[C@H](CCSC)NC(=O)[C@H](CCC(N)=O)NC(=O)[C@H](CCC(=O)O)NC(=O)[C@@H]1CCCN1C(=O)[C@@H](NC(=O)[C@H](C)NC(=O)[C@H](CC(N)=O)NC(=O)[C@H](CC(=O)O)NC(=O)CNC(=O)[C@@H]1CCCN1C(=O)[C@H](Cc1ccc(O)cc1)NC(=O)[C@@H](NC(=O)[C@@H]1CCCN1C(=O)[C@H](CCC(=O)O)NC(=O)[C@H](CC(C)C)NC(=O)[C@@H]1CCCN1C(=O)c1ccc2c(c1)C1(OC2=O)c2ccc(N(C)C)cc2Oc2cc(N(C)C)ccc21)C(C)C)[C@@H](C)O)[C@@H](C)CC)C(=O)N[C@@H](CC(C)C)C(=O)N[C@H](C(=O)N[C@@H](CCCNC(=N)N)C(=O)N1CCC[C@H]1C(=O)N[C@@H](CCCNC(=N)N)C(=O)N[C@@H](Cc1ccc(O)cc1)C(N)=O)[C@@H](C)O)C(=O)O` [15b, TAMRA-[K^30(E-Prop)]hPP2–36] (X1-PLEPVYPGDNATPEQMAQYAADLRRYINK([γGlu-Propionyl])LTRPRY-NH2), the half-life at 10 μM was 46.7 ± 6.6 h in data set [1] and 474 ± 17.3 h in data set [2].
Take `CCCCCCCCCCCCCCCC(=O)N[C@@H](CCC(=O)NCCCC[C@H](NC(=O)[C@H](CC(N)=O)NC(=O)[C@@H](NC(=O)[C@H](Cc1ccc(O)cc1)NC(=O)[C@H](CCCNC(=N)N)NC(=O)[C@H](CCCNC(=N)N)NC(=O)[C@H](CC(C)C)NC(=O)[C@H](CC(=O)O)NC(=O)[C@H](C)NC(=O)[C@H](C)NC(=O)[C@H](Cc1ccc(O)cc1)NC(=O)[C@H](CCC(N)=O)NC(=O)[C@H](C)NC(=O)[C@H](CCSC)NC(=O)[C@H](CCC(N)=O)NC(=O)[C@H](CCC(=O)O)NC(=O)[C@@H]1CCCN1C(=O)[C@@H](NC(=O)[C@H](C)NC(=O)[C@H](CC(N)=O)NC(=O)[C@H](CC(=O)O)NC(=O)CNC(=O)[C@@H]1CCCN1C(=O)[C@H](Cc1ccc(O)cc1)NC(=O)[C@@H](NC(=O)[C@@H]1CCCN1C(=O)[C@H](CCC(=O)O)NC(=O)[C@H](CC(C)C)NC(=O)[C@@H]1CCCN1)C(C)C)[C@@H](C)O)[C@@H](C)CC)C(=O)N[C@@H](CC(C)C)C(=O)N[C@H](C(=O)N[C@@H](CCCNC(=N)N)C(=O)N1CCC[C@H]1C(=O)N[C@@H](CCCNC(=N)N)C(=O)N[C@@H](Cc1ccc(O)cc1)C(N)=O)[C@@H](C)O)C(=O)O` [18a, [K^30(E-Pam)]hPP2–36] (H-PLEPVYPGDNATPEQMAQYAADLRRYINK([γGlu-Palmitoyl])LTRPRY-NH2): the EC50 (usually the midpoint of the concentration-response curve) turned out to be 76.2 nM in data set [3], 1.6 nM in data set [4], 21.1 nM in data set [5] and 1.2 nM in data set [6]. Moreover, the Emax (in general, the size of the effect at its maximum, as opposed to the concentration needed) in data set [3] (read-out: hY1R Emax) is 85 ± 3%; in data set [4] (read-out: hY5R Emax), 75 ± 5%; in data set [5] (read-out: hY2R Emax), 92 ± 3%; in data set [6] (read-out: hY4R Emax), 78 ± 4%.
